The subject of this assay is CEM cells HIV-1 protection, formazan growth assay. In words: NCI AIDS Antiviral Assay. Conditions: for IC50: measured here: growth of uninfected CEM cells. In outline: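 Human CEM cells, uninfected and HIV-1-infected, exposed to five drug concentrations; growth measured by soluble formazan assay and scored as percent protection from infection, with protecting compounds retested.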

From PubChem BioAssay AID179 (DTP/NCI, 2004) come the findings set out here.

As a reminder, the EC50 is the concentration giving half of the maximal effect. What is called IC50 is the concentration needed to halve the response being measured. A high value points to a need for much substance.

The source made the active and inactive calls.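 Rule for the calls: active = compounds giving half or more protection of infected cells from virus-caused growth loss, again on retest; inactive = the rest.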

With `CC(C)C(=O)N1Cc2cc(Cl)cc(Cl)c2OC(=O)c2ccccc21`, the EC50 was above 29.5 µM and the IC50 is 3.02 µM. With `CC1=CP(=O)(c2ccccc2)CC1` (stereo not drawn) (tested in a mixture with another compound), the EC50 was above 646 µM and the IC50 was above 646 µM. As to `OC(CN(Cc1nc2ccccc2[nH]1)Cc1nc2ccccc2[nH]1)CN(Cc1nc2ccccc2[nH]1)Cc1nc2ccccc2[nH]1`, the EC50 is above 200 µM and the half-maximal inhibitory concentration (IC50) came out at 2.51 µM. Turning to `COc1cccc(/C=C/c2nccc3ccccc23)c1OC`, the EC50 was above 200 µM and the IC50 came out at 12.9 µM.

As for `CC1(c2ccc(F)cc2)OC(=O)c2c1ccc1ccccc21` (stereo not drawn), the outcome was inactive.

In the case of `COc1cc(C2c3cc4c(cc3OC(NN)C2C)OCO4)cc(OC)c1OC` (stereo not drawn), the EC50 is above 200 µM and the half-inhibitory concentration (IC50) worked out at 1 µM. With `COc1ccc(-c2onc(-c3c(C)cc(C)cc3C)c2C2=NCCCN2)cc1`, the EC50 is above 50.1 µM and the IC50 was above 50.1 µM. On to `Cc1ccc(S(=O)(=O)OC2C3OC(C)(C)OC3OC2C(c2cc(O)c3c(c2O)C(=O)c2ccccc2C3=O)c2cc(O)c3c(c2O)C(=O)c2ccccc2C3=O)cc1` (stereo not drawn), for which the EC50 is above 200 µM and the IC50 is above 200 µM. In the case of `CCOC(=O)/C(C#N)=N\Nc1ccc(-n2c(C)nc3ccc(Br)cc3c2=O)cc1`, the EC50 is above 182 µM and the IC50 was 75.9 µM.

For `O=C1[C@@H]2[C@@H](c3ccccc3)[C@]2(Cl)C(=O)[C@H]2[C@H](c3ccccc3)[C@@]12Cl`, the result was inactive. Turning to `O=C1CCC2(c3ccccc3)Nc3ncccc3N12` (stereo not drawn), the EC50 was above 200 µM and the half-maximal inhibitory concentration (IC50) is above 200 µM. Take `Cn1nc(-c2ccccc2)c2c(/C=C/c3ccccc3)onc2c1=O`: the result was inactive.

For the compound `COc1cc(C(=C2SCCS2)c2nccc3cc(OC)c(OC)cc23)c([N+](=O)[O-])cc1OC`, the outcome was inactive. With `COc1ccc(C[C@@H]2Cc3cc(OC)c(OC)cc3CN2C)cc1`, the EC50 was above 692 µM and the IC50 is 45.7 µM. For `Cc1cn(C2CCC(=O)C2)c(=O)[nH]c1=O` (stereo not drawn), the result was inactive. In the case of `O=C(O)CN(CCO)CCN(CC(=O)O)CC(=O)O.[Fe+2]`, the EC50 is above 200 µM and the IC50 is above 200 µM. Compound `O=C(O)c1ccccc1C(=O)c1ccc(O)cc1` gave an EC50 above 200 µM and an IC50 above 200 µM. As for `CC(=O)Nc1cc(Cl)cc(Cl)c1O`, the EC50 is above 200 µM and the concentration for half-maximal inhibition (IC50) came to 53.7 µM. For the compound `Cn1c[n+](C2OC(CO)C(O)C2O)c2nc([O-])[nH]c(=O)c21` (stereo not drawn), the EC50 is above 17.4 µM and the half-inhibitory concentration (IC50) came to 9.77 µM. `O=C(/C=C/c1ccco1)N1CCN(Cc2ccccc2)CC1`: the EC50 was above 282 µM and the IC50 is 263 µM. Regarding `COc1ccc(C(O)C(=O)c2nc3ccc(Cl)cc3[nH]c2=O)cc1` (stereo not drawn), the result was inactive. As to `CC(NC1=NCCO1)c1ccsc1` (stereo not drawn), the EC50 is above 200 µM and the IC50 was found to be 64.6 µM.

With `Cc1noc2c1C(=O)CCC2`, the EC50 is above 1660 µM and the concentration for half-maximal inhibition (IC50) turned out to be 148 µM. Consider `C1=Nc2ccccc2Cn2nncc21`, for which the EC50 is above 1350 µM and the concentration for half-maximal inhibition (IC50) amounted to 21.9 µM.

As to `COC(=O)C1SC[C@H]2C(=O)N(c3ccccc3)C(=O)N12` (stereo partly drawn), the EC50 is above 200 µM and the 50% inhibitory concentration (IC50) was above 200 µM. Take `O=C(NCCN1CCOCC1)c1ccc(I)cc1`: the EC50 is above 200 µM and the IC50 is above 200 µM.

As for `CC1=C[C@]2(O)C(=O)[C@H](C)C[C@H]3[C@@H](CC[C@@](C)(O)/C=C\2C1=O)C3(C)C`, the EC50 is above 30.2 µM and the concentration for half-maximal inhibition (IC50) is 15.8 µM. The like results for `Nc1nc(Cl)cc(NCC2(CCO)CCC2)n1` were, in that order, above 200 µM and 138 µM.

`CNC(c1ccncc1)C(NC)c1ccncc1` (stereo not drawn): the EC50 is above 200 µM and the IC50 is above 200 µM.

As for `O=C1NCC2(CCN(CC3COc4ccccc4O3)CC2)N1c1ccccc1` (stereo not drawn), the EC50 was above 200 µM and the IC50 was above 200 µM. Take `COc1ccc(OC)c(NC(=O)CCC/C(CC(=O)c2ccc(O)c(OC)c2)=N\Nc2nnc(C)n2N)c1`: the EC50 is above 7.24 µM and the IC50 was above 7.24 µM. Consider `Cc1ccc(S(=O)(=O)OCC/C(=C\[Si](C)(C)C)c2ccccc2)cc1`, for which the result was inactive. `Clc1ccc(-c2c(C3=NCCN3)nnn2-c2ccccc2)cc1`: the EC50 is above 214 µM and the 50% inhibitory concentration (IC50) came out at 174 µM.

As for `Clc1ccc(OCc2nc3ccccc3[nH]2)cc1`, the EC50 is above 200 µM and the IC50 worked out at 162 µM. Take `Cc1c(NC(=O)CCCl)c(=O)oc2c(C)c3occc(=O)c3cc12`: the EC50 was above 145 µM and the IC50 was 1.48 µM.

Turning to `COc1ccc(C2c3cc4c(cc3OC(N3CCOCC3)C2C)OCO4)cc1` (stereo not drawn), the EC50 is above 200 µM and the half-maximal inhibitory concentration (IC50) amounted to 53.7 µM. For `O=c1nc(N2CCCC2)nc(N2CCCC2)s1`, the result was inactive. Turning to `CSC1=Nc2ccccc2SC(c2ccccc2)C1c1ccccc1` (stereo not drawn), the EC50 was above 49 µM and the IC50 was found to be 35.5 µM. Regarding `COc1ccccc1C1=Nc2ccccc2N=C(c2ccccc2O)C1`, the EC50 was above 200 µM and the IC50 is 93.3 µM.

As to `CCC[CH2][Sn]([CH2]CCC)([O]C(=O)c1cc(F)ccc1F)[O]C(=O)c1cc(F)ccc1F`, the EC50 is above 13.2 µM and the IC50 was 1 µM. For `O=C(NCCCCNCCCNC(=O)c1ccccc1)c1ccccc1` the same measures were above 200 µM and above 200 µM. With `Cc1cc(C)nc(NC(=O)Nc2cccc(C(F)(F)F)c2)c1`, the EC50 is above 200 µM and the IC50 was above 200 µM.

Take `COc1ccc2[nH]c(C(=O)N3CC(CCl)c4ccc(N)cc43)cc2c1` (stereo not drawn): the EC50 is above 2 µM and the IC50 came out at 0.389 µM. For `COC(=O)C1c2c(C)cc3n2C(C=C(C)C3)C1C(=O)OC` (stereo not drawn), the EC50 is 75.9 µM and the IC50 stood at 107 µM. The like results for `N#CC(Cc1ccccc1)C(N)=O` (stereo not drawn) were, in that order, above 200 µM and above 200 µM.

Take `CS1(=O)=NC(=N)c2ccccc21` (stereo not drawn): the result was inactive. With `NC(C/[N+]([O-])=N/O)C(=O)O` (stereo not drawn), the EC50 was above 11 µM and the concentration for half-maximal inhibition (IC50) was found to be 2.4 µM. The like results for `NNC(=O)c1n[nH]nc1C(=O)NN` were, in that order, above 200 µM and above 200 µM. On to `CCN(CC)CCn1nc(N)c2nc3cc(Cl)ccc3nc21`, for which the EC50 was above 100 µM and the IC50 was found to be 51.3 µM. The like results for `COC12C=CC(CC1)C1=C2C(=O)c2nc(C)c(C)nc2C1=O` (stereo not drawn) were, in that order, above 63.1 µM and 39.8 µM. For `CC(=O)OC1C2C(=C(C)C(=O)O[C@@H]2c2ccoc2)[C@@]2(C)CC3CC(C)(C(=O)O3)C12` (stereo partly drawn) the same measures were above 200 µM and above 200 µM. For the compound `C[C@@H](c1ccccc1)N1C[C@@H](c2ccc3c(c2)OCO3)[C@@H]2C(=O)CCC[C@@H]21`, the EC50 is above 200 µM and the 50% inhibitory concentration (IC50) came to 112 µM.

With `Oc1cc(Cl)c(Cl)cc1Cl`, the outcome was inactive. As to `COc1ccc2c(c1)CCCN2S(=O)(=O)c1ccccc1[N+](=O)[O-]`, the EC50 was above 200 µM and the IC50 was 21.4 µM. As for `CN[C@@H]1[C@H](O)[C@H](NC)[C@H]2O[C@@]3(O)C(=O)C[C@@H](C)O[C@H]3O[C@@H]2[C@H]1O`, the EC50 is above 200 µM and the IC50 was above 200 µM. Turning to `N#Cc1cccc(C=C2C(=O)c3ccccc3C2=O)c1`, the EC50 was above 36.3 µM and the 50% inhibitory concentration (IC50) is above 36.3 µM. With `O=C(NNc1nc(-c2ccccc2)cs1)Nc1ccccc1`, the EC50 is above 200 µM and the IC50 is 40.7 µM. For the compound `COC(=O)N/N=C(\C)CC(=O)Nc1ccc(Cl)cc1`, the EC50 is above 91.2 µM and the IC50 was above 91.2 µM. As to `S=C1C=C(c2ccccc2)Sc2ccccc2N1`, the EC50 was above 200 µM and the IC50 was determined as 60.3 µM. The like results for `CCOC(=O)C1CCCCc2sc(N)c(C#N)c21` (stereo not drawn) were, in that order, above 200 µM and 191 µM. On to `N#CCC(=O)N/N=C1/C(=O)NC(=O)C(=O)C1c1nc2ccccc2s1` (stereo not drawn), for which the outcome was inactive. Turning to `COc1cccc(-c2nc(-c3cnccn3)n(C3OC(CO)C(O)C(O)C3O)n2)c1` (stereo not drawn), the EC50 was above 200 µM and the IC50 was above 200 µM.

As to `C[C@]12CC[C@H](OC(=O)CCC(=O)O)CC1=CC[C@@H]1C2CC[C@@]2(C)C1CC[C@@H]2c1ncc(-c2ccccc2)s1` (stereo partly drawn), the EC50 is above 9.33 µM and the half-inhibitory concentration (IC50) was above 9.33 µM. Consider `O=c1cc(CNC2CC3CCC2C3)[nH]c(=O)[nH]1` (stereo not drawn), for which the result was inactive. Take `CCOC(=O)NC(S(=O)(=O)O)S(=O)(=O)O`: the EC50 was above 200 µM and the IC50 was above 200 µM. Consider `O=C(/C=C/c1ccc(O)cc1)c1cc(O)cc(O)c1`, for which the EC50 is above 200 µM and the half-maximal inhibitory concentration (IC50) was determined as 20.9 µM.

Consider `CNc1ncnc2nc(OC)[nH]c12`, for which the EC50 was above 105 µM and the IC50 was above 105 µM.

For the compound `CC1(C)CC(=O)C(=CN2C(=O)CNC2=S)C(=O)C1`, the EC50 is above 200 µM and the IC50 is above 200 µM. In the case of `C=CCC1(c2ccc(OC)cc2)C=CC(=O)CC1` (stereo not drawn), the EC50 was above 282 µM and the half-inhibitory concentration (IC50) amounted to 79.4 µM. Consider `Cc1ccc(S(=O)(=O)c2c(N)c3nc4ccccc4n3c3nc4ccccc4nc23)cc1`, for which the EC50 is above 4.57 µM and the IC50 was above 4.57 µM. On to `N#CC1=C(N)OC(c2cccc([N+](=O)[O-])c2)C1(C#N)C#N` (stereo not drawn), for which the EC50 is above 200 µM and the IC50 amounted to 15.5 µM. As for `CCOC(=O)N1CCNCCN(C(=O)OCC)CCNCC1`, the EC50 was above 200 µM and the IC50 was above 200 µM.

As to `CC1OC(O[C@@H]2C=C3CC[C@@H]4[C@H](CC[C@]5(C)[C@@H](c6ccc(=O)oc6)CC[C@]45O)[C@@]3(C)CC2)C(O)C(O)C1O` (stereo partly drawn), the EC50 was above 2 µM and the IC50 came out at 0.00468 µM. Turning to `CN1CN(c2ccccc2)C2(CCN(Cc3csc4ccccc34)CC2)C1=O`, the EC50 was above 200 µM and the concentration for half-maximal inhibition (IC50) worked out at 66.1 µM.

In the case of `CC(=O)N=C1N(/C=C2\C(=O)Oc3ccccc3C2=O)C(=O)/C(=C/c2cccc([N+](=O)[O-])c2)N1C`, the EC50 is above 100 µM and the IC50 is 97.7 µM.
